{"source": "ChEMBL document CHEMBL3585288", "about": "“Synthesis, characterization and evaluation of the substituent effect on the amoebicide activity of new hydrazone derivatives” (Medchemcomm, 2014)", "data": [{"tested_on": "Entamoeba histolytica", "assay": "Amoebicidal activity against trophozoite stage of Entamoeba histolytica HM-1:IMSS assessed as growth inhibition after 72 hrs by carboxyfluorescein diacetate/propidium iodide staining-based fluorescence microscopic analysis", "assay_type": "functional, organism-based", "units": {"IC50": "µM"}, "values": [{"smiles": "O=[N+]([O-])c1cccc(/C=N/N(c2ccccc2)c2ccccc2)c1", "IC50": 19}, {"smiles": "C(=N\\N(c1ccccc1)c1ccccc1)/c1ccccc1", "IC50": 78}, {"smiles": "C(=N\\N(c1ccccc1)c1ccccc1)/c1cccs1", "IC50": 7.6}, {"smiles": "O=C(/C(=N/N=C(/C(=O)c1ccccc1)c1ccccc1)c1ccccc1)c1ccccc1", "IC50": 18}, {"smiles": "C(=N\\N=C\\c1ccccc1)/c1ccccc1", "IC50": 96}, {"smiles": "Cc1ncc([N+](=O)[O-])n1CCO", "note": "[METRONIDAZOLE]", "IC50": 6.8}, {"smiles": "O=[N+]([O-])c1ccc(-c2ccc(/C=N/Nc3ccccc3)o2)cc1", "IC50": 0.98}, {"smiles": "O=[N+]([O-])c1ccc(-c2ccc(/C=N/N(c3ccccc3)c3ccccc3)o2)cc1", "IC50": 16}, {"smiles": "O=[N+]([O-])c1ccc(-c2ccc(/C=N/N=C/c3ccc(-c4ccc([N+](=O)[O-])cc4)o3)o2)cc1", "IC50": 13}, {"smiles": "C(=N\\Nc1ccccc1)/c1ccco1", "IC50": 120}]}, {"tested_on": "Entamoeba histolytica", "assay": "Potency index, ratio of metronidazole IC50 to compound IC50 for trophozoite stage of Entamoeba histolytica HM-1:IMSS", "assay_type": "functional", "values": [{"smiles": "O=[N+]([O-])c1ccc(-c2ccc(/C=N/Nc3ccccc3)o2)cc1", "Ratio IC50": 7}]}]}
